Where two headings read alike, the source gives them in different places.
Assays:
[1] = system: rat primary hepatocytes; assay: MMP assay in rat primary hepatocytes; settings: for IC50: Rattus norvegicus, Hepatocyte
[2] = system: rat primary hepatocytes
[3] = system: HepG2 cells; assay: cells; settings: Homo sapiens; for Emax: HepG2, read-out: MMP assays efficacy (%) HepG2
[4] = system: HepG2 cells; settings: cited from earlier work
[5] = read-out: MMP assays IC50 (µM) Rat Hepatocytes
[6] = HepG2, read-out: MMP assays IC50 (µM) HepG2
[7] = read-out: MMP assays IC50 (µM), qHTS-HepG2
[8] = read-out: MMP assays IC50 (µM) qHTS-HepG2

Row | Compound | IC50 [1, 5] | MMP assays efficacy (%) Rat Hepatocytes [2] | IC50 [3, 6] | Emax [3] | MMP assays efficacy (%) qHTS-HepG2 [4] | IC50 [4, 7] | MMP assays IC50 (µM) Rat Hepatocytes [1] | IC50 [4, 8] | IC50 ([1]; 1 h, read-out: IC50 in rat primary hepatocytes (MMP, tier-one retest)) | IC50 ([3]; HepG2, read-out: IC50 in HepG2 cells (MMP, tier-one retest))
1 | O=P(Oc1ccccc1)(Oc1ccccc1)Oc1ccccc1 [Triphenyl phosphate] | 28.9 ± 9.26 µM | -56±38% | 1.26 µM | 48% | -98±14% | 1.38 ± 1.48 µM | – | – | – | –
2 | Oc1ccc(/C=C/c2cc(O)cc(O)c2)cc1 [Resveratrol] | – | inactive | 3.71 µM | 33% | -66±11% | 1.6 ± 0.43 µM | inactive | – | – | –
3 | COC(=O)N(OC)c1ccccc1COc1ccn(-c2ccc(Cl)cc2)n1 [Pyraclostrobin] | 9.04 ± 1.89 µM | -121±32% | 1.26 µM | 118% | -116±2% | 6.35 ± 1.92 µM | – | – | – | –
4 | O=C1CN(/N=C/c2ccc(-c3ccc([N+](=O)[O-])cc3)o2)C(O)=N1 [Dantrolene sodium] | 15.5 ± 1.78 µM | -108±32% | 3.46 µM | 73% | -85±8% | – | – | 4.35 ± 1.73 µM | – | –
5 | CC(=O)Oc1ccc(C(c2ccc(OC(C)=O)cc2)c2ccccn2)cc1 [Bisacodyl] | 18.4 ± 13 µM | -73±12% | 7.74 µM | 95% | -67±5% | – | – | 14.8 ± 3.63 µM | – | –
6 | CS(=O)(=O)c1ccc(C(=O)C2C(=O)CCCC2=O)c([N+](=O)[O-])c1 [Mesotrione] | – | inactive | 39.8 µM | 72% | -75±17% | 18 ± 12 µM | inactive | – | – | –
7 | CC(C)(C)c1cc([N+](=O)[O-])cc(C(C)(C)C)c1O [2,6-di-tert-butyl-4-nitrophenol] | – | -109±11% | – | 108% | -96±13% | – | – | 0.17 ± 0.05 µM | 0.29 µM | 0.11 µM
8 | ClC1=C(Cl)C2(Cl)C(CBr)CC1(Cl)C2(Cl)Cl (stereo not drawn) [Bromociclen] | – | inactive | 15.5 µM | 47% | -87±13% | – | inactive | 33.2 ± 3.47 µM | – | –
9 | CO[C@H]1C[C@@H]2CC[C@@H](C)[C@@](O)(O2)C(=O)C(=O)N2CCCC[C@H]2C(=O)O[C@H]([C@H](C)C[C@@H]2CC[C@@H](O)[C@H](OC)C2)CC(=O)[C@H](C)/C=C(\C)[C@@H](O)[C@@H](OC)C(=O)[C@H](C)C[C@H](C)/C=C/C=C/C=C/1C [Sirolimus] | 20.6 ± 1.68 µM | -61±8% | 17.3 µM | 95% | -95±3% | 20.1 ± 2.07 µM | – | – | – | –
10 | O=c1c(-c2ccc(O)cc2)coc2cc(O)cc(O)c12 [Genistein] | 33.7 ± 19.5 µM | -70±41% | 10 µM | 96% | -101±1% | 6.34 ± 0.77 µM | – | – | – | –
11 | O=C(NC(=O)c1c(F)cccc1F)Nc1ccc(Cl)c(Oc2ncc(C(F)(F)F)cc2Cl)c1 [Fluazuron] | 9.83 ± 13.6 µM | -64±17% | 12.3 µM | 83% | -66±7% | 3.96 ± 2.31 µM | – | – | – | –
12 | C[C@H]1O[C@@H](O[C@H]2CC[C@@]3(C)[C@H](CC[C@@H]4[C@@H]3C[C@@H](O)[C@]3(C)[C@@H](C5=CC(=O)OC5)CC[C@]43O)C2)C[C@H](O)[C@@H]1O[C@H]1C[C@H](O)[C@H](O[C@H]2C[C@H](O)[C@H](O[C@@H]3O[C@H](CO)[C@@H](O)[C@H](O)[C@H]3O)[C@@H](C)O2)[C@@H](C)O1 [Deslanoside] | – | inactive | 0.44 µM | 97% | -81±14% | – | inactive | 1.84 ± 0.23 µM | – | –
13 | Clc1ccc(C(c2ccccc2Cl)C(Cl)(Cl)Cl)cc1 (stereo not drawn) [o,p'-DDT] | – | inactive | 25.1 µM | 101% | -86±11% | 24 ± 12.1 µM | inactive | – | – | –
14 | C[C@@]1(c2ccc(Oc3ccccc3)cc2)OC(=O)N(Nc2ccccc2)C1=O (racemic) [Famoxadone] | 8.38 ± 6.71 µM | -158±101% | 4.47 µM | 107% | -104±6% | – | – | 4.19 ± 1.07 µM | – | –
15 | CC(=O)Oc1ccc(C2(c3ccc(OC(C)=O)cc3)C(=O)Nc3ccccc32)cc1 [Oxyphenisatin acetate] | 20.6 ± 1.68 µM | -71±28% | 17.3 µM | 118% | -63±8% | 5.49 ± 4.6 µM | – | – | – | –

— publication PMC6112376, “Comprehensive Analyses and Prioritization of Tox21 10K Chemicals Affecting Mitochondrial Function by in-Depth Mechanistic Studies” (Environmental Health Perspectives, 2018)
